Reference: patent US9587220B2, “Method for inducing cardiac differentiation of pluripotent stem cell” (Kyoto University, priority 2012, dated 2017)
“Also recorded” adds a separate entry of the source.

Experiments:
Format in all cases: cell-based, human
[1] = system: WNT target genes in IMR90-1 hiPSCs; assay: Microarray and qPCR gene expression of WNT target genes; details: for expression levels of WNT target genes by qPCR: 12, 24 and 72 h after treatment
Method: IMR90-1 iPSCs were cultured in cardiac differentiation medium containing serum. On Day 3, cells were treated with 10 μM KY02111 or 0.1% DMSO for 0, 12, or 24 h. Non-treated cells (0 h), cells treated with KY02111 for 12 h (KY12hr) or 24 h (KY24hr), and cells treated with 0.1% DMSO for 12 h (DMSO12hr) or 24 h (DMSO24hr) were used for microarray analysis. Total RNA was prepared using the RNeasy Mini Kit (Qiagen), according to the manufacturer's instructions. Synthesis of cDNA, in vitro transcription and biotin labeling cRNA, and hybridization to the Human Gene 1.0 ST array (Affymetrix) were performed according to Affymetrix protocols. Hybridized arrays were scanned using an Affymetrix GeneChip Scanner. Data normalization and further analysis were performed with GeneSpring GX (Agilent Technologies). Proportions of treated cells expressing genes relative to control (KY02111/DMSO) were calculated for each time point. […] The microarray data have been submitted to the Gene Expression Omnibus (GEO) public database at NCBI (GEO accession number, GSE33622).
Total RNA was isolated with an RNeasy Mini Kit (QIAGEN). Genomic DNA was completely digested with DNase I (Invitrogen). Total RNA (0.5 μg) was subjected to cDNA synthesis using the SuperScript III Reverse Transcriptase (Invitrogen). qRT-PCR was performed in triplicate, using SYBER GREEN PCR Master Mix on a 7500 Real Time PCR System (Applied Biosystems). The cycling conditions were as follows: 10 min at 95° C.; 40 cycles, each consisting of 15 s at 95° C.; 1 min at 60° C. Total RNA from human adult heart tissue (BioChain) was used to evaluate the expression levels of cardiac marker genes for cardiomyocytes derived from hPSCs. All values were normalized with respect to GAPDH expression level and expressed relative to the corresponding values in human adult hearts (100%).

IMR90-1 hiPSCs = assay: Beating colonies of hiPSCs (IMR90-1) in serum-containing cardiac differentiation; details: for proportions of beating colonies: hiPSCs; for proportions of beating colonies with BIO: with 5 μM BIO (GSK3β inhibitor)
Method: Confluent hESCs and hiPSCs were gently detached with CTK solution and transferred into Petri dishes (BD Biosciences) with Primate ES Cell Culture Medium (ReproCELL, Japan). Cells were held in suspension culture for 8-24 h to form aggregates. The sizes of hPSC aggregates (0.3-1 mm in diameter) are important for efficient differentiation. Following suspension culture, cell aggregates were attached to culture dishes (3-10×10^5 cells cm^−2) in cardiac differentiation medium: IMDM (Sigma), containing 20% FBS (Gibco), 1% MEM non-essential amino acid solution (Sigma), 1% Penicillin-Streptomycin (Gibco), 2 mM L-glutamine (Sigma), 0.001% 2-Mercaptoethanol (Gibco), and 0.005N NaOH, with 10 ng ml^−1 BMP4 (R&D Systems). The medium was changed to cardiac differentiation medium with 10 μM KY02111 and/or other WNT inhibitors added on Day 3 (hiPSC lines) or Day 4 (human or monkey ESC lines); XAV939 (Wako, Japan), IWP-2 (Santa Cruz Biotechnology), IWR-1 (Merck4Bioscience), IGFBP4 (R&D Systems), Dkk1 (R&D Systems) and the mixture of bFGF (R&D Systems), BMP4 (R&D Systems), VEGF (R&D Systems), DKK1 (R&D Systems), and Activin A (R&D Systems) (Non-patent literature 16). Medium was changed every 2-3 d. KY02111 and other WNT inhibitors were added until Day 9 for hiPSC lines and the monkey ESC line, or Day 14 for hESC lines. On Day 15, cardiac cell colonies on dishes were incubated with protease solution (0.1% collagenase type I, 0.25% trypsin, 1 U ml^−1 DNase I, 116 mM NaCl, 20 mM HEPES, 12.5 mM NaH2PO4, 5.6 mM glucose, 5.4 mM KCl, and 0.8 mM MgSO4, pH 7.35) for 0.5-2 h, until all cardiac colonies were detached from the bottom of the wells. The detached cardiac colonies were transferred into 15 ml tubes with fresh cardiac differentiation medium and precipitated by gravity, and the supernatant was removed by aspiration. The cardiac colonies were then transferred into Ultra-low culture dishes (Corning, 3261) or 6-well plates (Corning, YO-01835-24) in cardiac differentiation medium without both serum and NaOH. The floating cardiac colonies were maintained for more than 1 month, and the media were changed every 5 d. A differentiation method of mouse ESC (R1 line) was carried out as previously described^46, and KY02111 was added during Days 3-6. Beating colonies were counted on Day 9.

[2] = system: TCF promoter activity in HEK293 cells; assay: TOPflash TCF reporter assay in HEK293 cells; details: 10 μM
Method: For the TCF reporter assay, IMR90-1 hiPSCs were cultured in the serum-containing differentiation culture, as described above, and transfected with TOPFlash plasmid (Millipore 21-170) and pRL-SV40 plasmid (Renilla luciferase transfection control, Promega E1980) on Day 2, using FuGENE HD transfection Reagenet (Promega E2311). After 24 h, 10 μM KY02111, 10 μM XAV939, or 10 μM IWP-2 was added to the medium, along with either 60 ng ml^−1 of mouse Wnt3a (Wako 232-02421) or 3 μM BIO. After 48 h of transfection (Day 4), luciferase activities were measured using a Dual-Luciferase Reporter 1000 Assay System kit (Promega E1980) and a 2030 ARVO X3 plate reader (PerkinElmer). Luciferase activities were normalized to the luminescence of the transfection control, Rennila luciferase, according to the kit protocol. For experiments using HEK293 cells, the cells were cultured in 10% FBS DMEM medium, and transfected with TOPflash and pRL-SV40 plasmid, using FuGENE HD. After 24 h, the transfected cells were seeded onto 96-well plates (10,000 cells well^−1) in medium containing 10 μM KY02111, 10 μM XAV939, or 10 μM IWP-2, along with 3 μM BIO or 60 ng ml^−1 mouse Wnt3a. Luciferase activities were measured 48 h after transfection by the procedure described above.

Row | SMILES | expression levels of WNT target genes by qPCR [1] | proportions of beating colonies (IMR90-1 hiPSCs; FIG. 3d) [%] | proportions of beating colonies with BIO (IMR90-1 hiPSCs; FIG. 3d) | number of genes changed >25% at both 12 and 24 h (microarray) ([1]; 10 μM, versus DMSO) [genes] | TCF promoter activity by Wnt3a ([2]; with 60 ng/ml Wnt3a) | TCF promoter activity by BIO ([2]; with 3 μM BIO) | promotion of cardiac differentiation of hiPSCs compared with other WNT inhibitors (IMR90-1 hiPSCs; FIG. 3d) | proportion of beating colonies after subculture (IMR90-1 hiPSCs; floating culture of beating colonies, FIG. 6) | day on which beating colonies emerged (IMR90-1 hiPSCs; time course, FIG. 6) [days] | day until which cardiac colonies continued beating (IMR90-1 hiPSCs; time course, FIG. 6) [days]
1 | Cc1ccc2nc(NC(=O)CSc3nc4c(c(=O)n3-c3ccccc3)SCC4)sc2c1 [IWP-2, reference compound] | suppressed | 37 | completely inhibit |  |  |  |  |  |  | 
2 | Oc1nc(-c2ccc(C(F)(F)F)cc2)nc2c1CSCC2 [XAV939, reference compound] | suppressed | 7.5 | completely inhibit |  |  |  |  |  |  | 
3 | COc1ccc(CCC(=O)Nc2nc3ccc(Cl)cc3s2)cc1OC [KY02111, 2-(3-(3,4-dimethoxyphenyl)propanamide)-6-chlorobenzothiazole] | suppressed | 87 | did not cancel | 26 | enhanced luciferase activity; also recorded: further augmented | cancelled WNT activation by BIO; also recorded: inhibited | most effective | up to 90% | 10 | ≥ 50
